Laboratory results from ChEMBL document CHEMBL1150870, “Trichoflectin, a bioactive azaphilone from the ascomycete Trichopezizella nidulus” (1998).

Key:
Type in all cases: functional
Conditions in all cases: read-out: IZ
Lachnellula = experiment: Inhibition of DHN-melanin biosynthesis in Lachnellula sp. A32-89 assessed as pigment inhibition zone at 50 ug/disk by agar diffusion assay
Bacillus subtilis = experiment: Antimicrobial activity against Bacillus subtilis at 50 ug/disk
Rhizomucor miehei = experiment: Antimicrobial activity against Mucor miehei at 50 ug/disk

SMILES	zone of inhibition at 50 µg/disc (Lachnellula) [mm]	zone of inhibition at 50 µg/disc (Bacillus subtilis) [mm]	zone of inhibition at 50 µg/disc (Rhizomucor miehei) [mm]
CC1=CC2=C(CO1)C(=O)c1c(O)cc(O)cc1C2=O	14	–	–
COc1cc(O)c2c(c1)C(=O)C1=C(COC(C)=C1)C2=O	14	–	–
C/C=C/C1=CC2=CC(=O)[C@@]3(C)OC(=O)C(C(C)=O)=C3C2=CO1 [TRICHOFLECTIN]	19	23	23
